Measured values: US20230257396A1, “MACROCYCLES AND THEIR USE” (BLOSSOMHILL THERAPEUTICS, INC., priority 2020, published 2023)
Substitutions are numbered along the chain they refer to.

What was measured:
Assay in all cases: KINOMEscan kinase binding assay (Eurofins/DiscoveRx), % Ctrl
Details in all cases: 1 μM
[1] = biological target: T1, kinases (Homo sapiens, UniProt P10721, D816V)
T1 construct: purchased Eurofins/DiscoveRx; host or cells: E. coli BL21-derived host (T7 phage display) for most kinases; HEK-293 for the rest
Outline: (§1)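 Read-out is qPCR of kinase eluted from ligand-coated streptavidin beads after 1 h room-temperature competition with test compound. Values are % Ctrl at the tested concentration, lower meaning tighter binding.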

[2] = biological target: T2, kinases (Homo sapiens, UniProt P00533, L858R/T790M)
T2 construct: purchased Eurofins/DiscoveRx; host or cells: E. coli BL21-derived host (T7 phage display) for most kinases; HEK-293 for the rest
Outline: as §1

[3] = biological target: T3, kinases (Homo sapiens, UniProt P42684)
T3 construct: purchased Eurofins/DiscoveRx; host or cells: E. coli BL21-derived host (T7 phage display) for most kinases; HEK-293 for the rest
Outline: as §1

[4] = biological target: T4, kinases (Homo sapiens, UniProt P36888, K663Q)
T4 construct: purchased Eurofins/DiscoveRx; host or cells: E. coli BL21-derived host (T7 phage display) for most kinases; HEK-293 for the rest
T4 sequence (P36888 27-993 K663Q): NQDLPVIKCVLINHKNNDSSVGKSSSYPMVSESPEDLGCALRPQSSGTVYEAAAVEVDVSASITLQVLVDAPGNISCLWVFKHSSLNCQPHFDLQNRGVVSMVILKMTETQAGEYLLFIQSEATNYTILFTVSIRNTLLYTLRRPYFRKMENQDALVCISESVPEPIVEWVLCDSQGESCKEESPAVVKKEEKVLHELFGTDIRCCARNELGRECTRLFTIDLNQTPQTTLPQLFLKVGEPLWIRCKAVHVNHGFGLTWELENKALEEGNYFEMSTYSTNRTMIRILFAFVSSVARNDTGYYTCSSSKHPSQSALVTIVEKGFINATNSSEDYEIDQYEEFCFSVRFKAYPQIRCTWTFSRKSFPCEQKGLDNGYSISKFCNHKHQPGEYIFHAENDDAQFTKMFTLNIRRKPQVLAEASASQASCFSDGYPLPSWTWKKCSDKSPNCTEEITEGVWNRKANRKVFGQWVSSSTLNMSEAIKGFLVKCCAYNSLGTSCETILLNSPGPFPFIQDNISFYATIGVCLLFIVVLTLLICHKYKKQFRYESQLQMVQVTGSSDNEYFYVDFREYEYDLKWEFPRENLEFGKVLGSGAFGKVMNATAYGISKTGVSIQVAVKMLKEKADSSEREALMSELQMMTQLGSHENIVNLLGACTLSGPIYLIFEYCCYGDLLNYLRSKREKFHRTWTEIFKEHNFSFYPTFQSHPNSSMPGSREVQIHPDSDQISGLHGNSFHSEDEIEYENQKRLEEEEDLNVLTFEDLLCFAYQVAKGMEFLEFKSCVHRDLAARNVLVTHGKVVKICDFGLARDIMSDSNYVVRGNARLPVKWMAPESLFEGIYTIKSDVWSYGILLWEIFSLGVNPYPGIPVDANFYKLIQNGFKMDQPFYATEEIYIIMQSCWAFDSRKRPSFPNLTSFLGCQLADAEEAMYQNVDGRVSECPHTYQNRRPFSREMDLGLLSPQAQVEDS
Outline: as §1

[5] = biological target: T5, kinases (Homo sapiens, UniProt P36888)
T5 construct: purchased Eurofins/DiscoveRx; host or cells: E. coli BL21-derived host (T7 phage display) for most kinases; HEK-293 for the rest
T5 sequence (P36888 27-993): T4 sequence (P36888 27-993 K663Q) with Q637K
Outline: as §1

[6] = biological target: T6, kinases (Homo sapiens, UniProt P10721)
T6 construct: purchased Eurofins/DiscoveRx; host or cells: E. coli BL21-derived host (T7 phage display) for most kinases; HEK-293 for the rest
Outline: as §1

T1 sequence (P10721 26-976 D816V): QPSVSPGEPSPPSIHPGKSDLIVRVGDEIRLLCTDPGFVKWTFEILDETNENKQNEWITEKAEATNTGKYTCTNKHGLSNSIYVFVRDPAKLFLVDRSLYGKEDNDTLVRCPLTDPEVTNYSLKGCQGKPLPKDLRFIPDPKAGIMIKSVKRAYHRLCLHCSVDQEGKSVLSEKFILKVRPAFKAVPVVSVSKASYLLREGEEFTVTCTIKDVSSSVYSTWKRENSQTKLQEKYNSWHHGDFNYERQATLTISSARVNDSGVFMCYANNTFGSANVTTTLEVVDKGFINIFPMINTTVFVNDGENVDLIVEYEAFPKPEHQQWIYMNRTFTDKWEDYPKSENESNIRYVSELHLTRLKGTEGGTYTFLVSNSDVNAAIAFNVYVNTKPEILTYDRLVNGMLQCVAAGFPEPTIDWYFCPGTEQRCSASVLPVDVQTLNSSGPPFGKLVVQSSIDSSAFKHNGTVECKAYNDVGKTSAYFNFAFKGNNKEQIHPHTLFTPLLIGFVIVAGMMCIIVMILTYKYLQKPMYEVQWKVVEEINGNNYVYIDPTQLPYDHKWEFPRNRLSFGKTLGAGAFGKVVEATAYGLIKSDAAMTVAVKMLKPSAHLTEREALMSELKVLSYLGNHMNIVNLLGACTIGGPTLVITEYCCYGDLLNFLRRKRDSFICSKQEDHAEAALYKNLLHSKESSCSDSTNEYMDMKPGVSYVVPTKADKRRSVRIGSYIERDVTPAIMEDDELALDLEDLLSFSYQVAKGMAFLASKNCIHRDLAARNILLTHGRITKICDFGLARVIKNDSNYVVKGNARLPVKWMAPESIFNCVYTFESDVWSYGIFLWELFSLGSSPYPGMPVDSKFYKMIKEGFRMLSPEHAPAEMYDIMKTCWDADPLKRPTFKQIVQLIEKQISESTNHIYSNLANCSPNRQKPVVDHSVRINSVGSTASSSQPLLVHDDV
T6 sequence (P10721 26-976): as the sequence (P10721 26-976 D816V) above, with V791D counted along it
T3 sequence (P42684 whole entry): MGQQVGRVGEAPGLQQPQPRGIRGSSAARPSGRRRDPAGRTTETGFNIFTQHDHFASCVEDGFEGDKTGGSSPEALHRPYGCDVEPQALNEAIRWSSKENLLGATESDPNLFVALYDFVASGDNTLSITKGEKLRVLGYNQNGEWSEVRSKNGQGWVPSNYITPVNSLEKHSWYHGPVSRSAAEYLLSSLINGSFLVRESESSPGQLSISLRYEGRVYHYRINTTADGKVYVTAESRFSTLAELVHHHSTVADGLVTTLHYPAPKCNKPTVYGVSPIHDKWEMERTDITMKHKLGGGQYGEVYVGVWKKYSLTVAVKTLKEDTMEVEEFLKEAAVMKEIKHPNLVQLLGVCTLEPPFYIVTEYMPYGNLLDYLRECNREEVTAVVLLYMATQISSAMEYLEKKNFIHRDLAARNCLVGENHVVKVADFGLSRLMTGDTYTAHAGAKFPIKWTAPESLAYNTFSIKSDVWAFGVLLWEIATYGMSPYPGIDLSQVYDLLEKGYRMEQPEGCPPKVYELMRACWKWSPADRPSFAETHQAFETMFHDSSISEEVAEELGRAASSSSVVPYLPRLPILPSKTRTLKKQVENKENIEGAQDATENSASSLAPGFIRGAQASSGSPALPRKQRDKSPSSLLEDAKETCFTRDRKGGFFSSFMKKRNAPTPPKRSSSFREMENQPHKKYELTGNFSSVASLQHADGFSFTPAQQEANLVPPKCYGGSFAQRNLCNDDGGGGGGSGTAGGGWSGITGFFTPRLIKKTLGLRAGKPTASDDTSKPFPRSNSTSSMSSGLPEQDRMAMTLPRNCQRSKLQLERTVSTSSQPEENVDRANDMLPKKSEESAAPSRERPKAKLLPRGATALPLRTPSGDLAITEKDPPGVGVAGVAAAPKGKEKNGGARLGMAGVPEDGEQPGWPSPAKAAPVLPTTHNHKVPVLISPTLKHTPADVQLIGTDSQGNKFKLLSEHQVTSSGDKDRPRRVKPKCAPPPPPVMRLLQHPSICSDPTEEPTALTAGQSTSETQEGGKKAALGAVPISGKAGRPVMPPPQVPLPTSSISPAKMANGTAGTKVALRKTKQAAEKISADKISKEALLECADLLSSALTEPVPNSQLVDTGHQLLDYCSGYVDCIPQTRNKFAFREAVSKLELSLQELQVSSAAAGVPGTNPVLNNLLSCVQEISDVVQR

SMILES | % Ctrl, KIT(D816V) ([1]; KIT(D816V)) [% Ctrl] | % Ctrl, EGFR(L858R, T790M) ([2]; EGFR(L858R, T790M)) [% Ctrl] | % Ctrl, ABL2 ([3]; ABL2) [% Ctrl] | % Ctrl, FLT3(K663Q) ([4]; FLT3(K663Q)) [% Ctrl] | % Ctrl, FLT3 ([5]; FLT3) [% Ctrl] | % Ctrl, FLT3-autoinhibited ([5]; FLT3-autoinhibited) [% Ctrl] | % Ctrl, KIT ([6]; KIT) [% Ctrl] | % Ctrl, KIT-autoinhibited ([6]; KIT-autoinhibited) [% Ctrl] | % Ctrl, KIT(D816V) ([1]; target KIT(D816V)) [% Ctrl] | % Ctrl, EGFR(L858R, T790M) ([2]; target EGFR(L858R, T790M)) [% Ctrl] | % Ctrl, ABL2 ([3]; target ABL2) [% Ctrl] | % Ctrl, FLT3(K663Q) ([4]; target FLT3(K663Q)) [% Ctrl] | % Ctrl, FLT3 ([5]; target FLT3) [% Ctrl] | % Ctrl, FLT3-autoinhibited ([5]; target FLT3-autoinhibited) [% Ctrl] | % Ctrl, KIT ([6]; target KIT) [% Ctrl] | % Ctrl, KIT-autoinhibited ([6]; target KIT-autoinhibited) [% Ctrl]
Cc1cc2c([nH]1)/C=C1\C(=O)Nc3ccc(cc31)-c1cnn(C)c1CN(C)CCN(C)C2=O [Ex. 126, [3a(4)Z]-6,9,12,14-tetramethyl-9,10,11,12,13,14-hexahydro-1,17-(ethanediylidene)pyrazolo[4,3-m]dipyrrolo[3,2-f:3′,4′-i][1,4]diazacyclopentadecine-3,8(2H,5H)-dione] | 0.3 | 0.15 | 0.9 | 4.2 | 0.2 | 0.25 | 6.3 | 84 |  |  |  |  |  |  |  | 
Cc1cc2c([nH]1)/C=C1\C(=O)Nc3ccc(cc31)-c1c(C)n[nH]c1CNCCN(C)C2=O [Ex. 127, [3a(4)Z]-6,9,16-trimethyl-9,10,11,12,13,14-hexahydro-1,17-(ethanediylidene)pyrazolo[4,3-m]dipyrrolo[3,2-f:3′,4′-i][1,4]diazacyclopentadecine-3,8(2H,5H)-dione] | 48 | 2.3 | 6.9 | 5.3 | 4.6 | 9.9 | 89 | 80 |  |  |  |  |  |  |  | 
Cc1cc2c([nH]1)/C=C1\C(=O)Nc3ccc(cc31)OCCOCCNC2=O [Ex. 129, [16a(17)Z]-2-methyl-6,7,9,10-tetrahydro-1H-12,14-(ethanediylidene)dipyrrolo[3,2-i:3′,4′-l][1,4,7]dioxazacyclopentadecine-4,16(5H,15H)-dione] | 93 | 98 | 96 | 100 | 100 | 98 | 100 | 78 |  |  |  |  |  |  |  | 
Cc1cc2c([nH]1)/C=C1\C(=O)Nc3ccc(cc31)-c1cnn(C)c1OCCCN(C)C2=O [Ex. 166, [3a(4)Z]-9,14-dimethyl-9,10,11,12-tetrahydro-14H-1,17-(ethanediylidene)pyrazolo[4,3-n]dipyrrolo[3,2-g:3′,4′-j][1,5]oxazacyclopentadecine-3,8(2H,5H)-dione] |  |  |  |  |  |  |  |  | 2.8 | 8.1 | 51 | 1.7 | 4.2 | 2 | 100 | 87
Cc1cc2c([nH]1)/C=C1\C(=O)Nc3ccc(cc31)CN(C)C(=O)COCCNC2=O [Ex.111, [17a(18)Z]-2,11-dimethyl-6,7,11,12-tetrahydro-1H-13,15-(ethanediylidene)dipyrrolo[3,2-f:3′,4′-i][1,4,14]oxadiazacyclohexadecine-4,10,17(5H,9H,16H)-trione] | 76 | 97 | 100 | 44 | 45 | 95 | 99 | 100 |  |  |  |  |  |  |  | 
Cc1cc2c([nH]1)/C=C1\C(=O)Nc3cnc(nc31)N(C)CCCOCCN(C)C2=O [Ex.71, [17a(18)Z]-2,5,12-trimethyl-6,7,9,10,11,12-hexahydro-1H-13,15-(azenometheno)dipyrrolo[3,2-f:3′,4′-i][1,4,11,13]oxatriazacyclohexadecine-4,17(5H,16H)-dione] | 100 | 100 | 100 | 84 | 93 | 100 | 100 | 100 |  |  |  |  |  |  |  | 
